Literature values, collected in patent US20240100001A1, “DENATONIUM SALT FOR USE IN PREVENTING, PREVENTING PROGRESSION AND TREATING FATTY LIVER DISEASES” (AARDVARK THERAPEUTICS INC., priority 2021, published 2024).
Like-named read-outs stand apart in the source and are kept apart here.

Experiments:
NAFLD/NASH = conditions: cited from earlier work; for benefit in NAFLD/NASH: agents tried so far
[1] = test system: Male C57BL/6 mice fed a CDAHFD diet for 12 weeks; conditions: cited from earlier work
[2] = test system: Male C57BL/6 mice fed a fast food diet (FF diet) for 330 days; conditions: dose unknown, cited from earlier work
[3] = test system: Male C57BL/6J mice fed with the AMLN diet for 50 weeks; conditions: 30 mg/kg, PO, QD for 8 weeks; cited from earlier work
[4] = test system: STAM model: Streptozotocin-injected 2-day old male C57BL/6 mice fed high-fat diet; conditions: 3 mg/kg, twice weekly, cited from earlier work
[5] = test system: FXR-deficient mice placed on a high-fat, high-fructose, highcholesterol diet (HFFCD) for 50 weeks; conditions: cited from earlier work
[6] = test system: A mouse model of diet-induced NASH; conditions: 10 mg/kg/day PO for eight weeks; cited from earlier work
[7] = test system: Male C57BL/6J mice fed high fat diet for 20 weeks; conditions: 0.3 mg/kg/day PO for 20 weeks; cited from earlier work
[8] = test system: C57BL/6 mice treated with 60% high fat diet for 36 weeks; conditions: 0.3-3 mg/kg/day PO for 24 days; cited from earlier work
[9] = test system: Male C57BL/6N mice fed choline-deficient, L-amino acid-defined, high-fat diet (CDAHFD); conditions: cited from earlier work
[10] = test system: Male DIAMOND mice fed high fat sugar water diet (WDSW) for 24 weeks; conditions: cited from earlier work
[11] = test system: patients with NASH and IGT or T2DM; conditions: women and men; cited from earlier work
[12] = test system: C57BL/6 male mice fed with the methionine- and choline-deficient (MCD) diet for 4 weeks; conditions: 5 mg/kg/day PO for the last 2 weeks; cited from earlier work
[13] = test system: STAM model: Streptozotocin-injected 2-day old male C57BL/6 mice fed high-fat diet; conditions: cited from earlier work
[14] = test system: AMLN model: C57BL/6J mice placed on AMLN diet for 30 weeks; conditions: 0.03-0.9 mg/kg for the last 4 weeks; cited from earlier work
[15] = test system: Male C57BL/6J mice fed with the AMLN diet for 32 weeks; conditions: SC for 12 weeks, Semaglutide 10 nmol/kg, cited from earlier work
patients with NASH = conditions: cited from earlier work
[16] = test system: Male C57BL/6 mice fed a CDAHFD diet for 20 weeks; conditions: cited from earlier work
[17] = test system: C57Bl6/J mice fed a MCD diet for 3 weeks; conditions: 10 or 30 mg/kg, PO, QD for 3 weeks; cited from earlier work
[18] = treatment started after FF diet induction for 240 days
[19] = SC for 2 weeks (start at Week 7)
[20] = 30 mg/kg/day PO QD for the last 8 weeks
[21] = 60 mg/kg IV twice a week for 4 weeks, early treatment cohort
[22] = ALT-801 5 or 10 nmol/kg (both doses)

## O=C1O[C@H]([C@@H](O)CO)C(O)=C1O [vitamin C]
NAFLD/NASH
  benefit in NAFLD/NASH: unsuccessfully or with only modest benefit

## CC[C@H]1[C@@H](O)[C@@H]2[C@H](CC[C@]3(C)[C@@H]([C@H](C)CCNC(=O)NS(=O)(=O)c4ccc(C(C)(C)C)cc4)CC[C@@H]23)[C@@]2(C)CC[C@@H](O)C[C@@H]12 [EDP-305]
[1]; High dose (30 mg/kg)
  fibrogenic gene expression: decreased
[1]; High-dose (30 mg/kg) daily PO from the beginning of week 6
  fibrosis progression on histopathology: mg/kg) halted

## Cc1cc(F)c(C(=O)Nc2cccc(-c3nncn3C(C)C)n2)cc1-n1cnc(C2CC2)c1 [Selonsertib]
[2]
  Reduced liver cholesterol: 45%
  Reduced serum cholesterol: 14%
  serum bile acids: reduced serum
  serum cholate reduction: cholate (91%
  serum deoxycholate reduction: (90% reduction).
[2]; [18]
  fibrosis: reduced liver
  insulin resistance: reduced liver
  liver steatosis: reduced liver

## CSc1ccc(C(=O)/C=C/c2cc(C)c(OC(C)(C)C(=O)O)c(C)c2)cc1 [Elafibranor]
[3]
  fibrosis severity: reduced
  histopathological score of hepatic steatosis: reduced
  histopathological score of inflammation: reduced

## Pegbelfermin
[4]; [19]
  mean grade for hepatocellular ballooning: decreased
  mean grade for lobular inflammation: decreased
  mean grade for steatosis: decreased
[4]; SC for 2 weeks
  decrease of mean serum fibrosis biomarker Pro-C3: C3 by 44%
  liver triglycerides: improved
  liver/body weight ratio: (−20%), as well
  plasma triglycerides: improved
  whole blood glucose: glucose (−30%),

## CCCCCCCCCCC[C@@H](C[C@@H]1OC(=O)[C@H]1CCCCCC)OC(=O)[C@H](CC(C)C)NC=O [orlistat]
NAFLD/NASH; in vivo
  benefit compared to diet and exercise (weight loss alone): no significant benefit

## Aldafermin
[5]; delivered by AAV at Week 16
  hepatic expression of inflammatory and fibrotic biomarkers: decreased
  hepatocellular fibrosis: reduced
  serum level of ALT: reduced serum
  serum level of AST: reduced serum
  spleen weight: reduced liver
  steatosis: not impact
[5]; delivered by adeno-associated viral vector (AAV) at Week 16
  liver weight: reduced liver

## Cc1cc(OCP2(=O)OCC[C@@H](c3cccc(Cl)c3)O2)cc(C)c1Cc1ccc(O)c(C(C)C)c1 (some centres unmarked) [VK2809]
[6]
  NAS score mean improvement: score (a 40%
  all subcomponents of NAS (inflammation, ballooning, and steatosis): Improvements
  liver content of cholesterol: improved liver
  liver content of collagen: improved liver
  liver content of hydroxyproline: improved liver
  liver content of triglyceride: improved liver
  liver fibrosis on histopathology: improved NAS
  plasma cholesterol: reduced plasma
  plasma triglycerides: reduced plasma

## C[C@H](NC(=O)C(=O)Nc1ccccc1C(C)(C)C)C(=O)N[C@@H](CC(=O)O)C(=O)COc1c(F)c(F)cc(F)c1F [Emricasan]
[7]
  HOMA-IR: Decreased
  ballooning on histopathology: Improved
  fibrosis on histopathology: Improved
  fibrotic and inflammatory gene signature: Decreased
  inflammation on histopathology: Improved
  serum level of ALT: Decreased
  serum level of AST: Decreased
  serum level of cholesterol: Decreased
  serum level of glucose: Decreased

## CC(C)c1cc(Oc2c(Cl)cc(-n3nc(C#N)c(=O)[nH]c3=O)cc2Cl)n[nH]c1=O [Resmetirom]
[8]
  fibrosis in treated livers: No detectable
  inflammation in treated livers: No detectable
  insulin sensitivity: Improved
  reduced serum level of ALT: (46%), free
  reduced serum level of cholesterol: (67%).
  steatosis in treated livers: No detectable

## CCCCOCCOc1ccc(-c2ccc3c(c2)/C=C(/C(=O)Nc2ccc([S@@+]([O-])Cc4cncn4CCC)cc2)CCCN3CC(C)C)cc1 [Cenicriviroc]
[9]; 30 mg/kg/day for 4 or 14 weeks
  intrahepatic accumulation of inflammatory macrophages: Inhibited
[9]; only with 30 mg/kg/day for 14 weeks, IP
  fibrosis on histopathology: improved

## Cc1c(C)c2c(c(C)c1O)CC[C@@](C)(CCC[C@H](C)CCC[C@H](C)CCCC(C)C)O2 [vitamin E, α-tocopherol]
NAFLD/NASH
  benefit in NAFLD/NASH: unsuccessfully or with only modest benefit

## CC(=O)CCCCn1c(=O)c2c(ncn2C)n(C)c1=O [pentoxifylline]
NAFLD/NASH
  benefit in NAFLD/NASH: unsuccessfully or with only modest benefit

## COc1cccc(C(=O)COc2ccc(CC3SC(=O)NC3=O)cc2)c1 (centres unmarked) [Azemiglitazone]
[10]; 30 mg/kg/day PO QD for the last 8 weeks (16-24 weeks)
  ballooning: decreased
[10]; [20]
  NASH CRN fibrosis score: group was 0.
  mice progressed from simple steatosis to NASH compared to the control group: fewer MSDC-
  serum level of ALT: reduced serum
  serum level of AST: reduced serum
  serum level of fasting insulin: reduced serum
[10]; 30 mg/kg/day PO QD for the last 8 weeks, trended lower
  NAFLD Activity Score (NAS): (NAS) trended

## CCc1ccc(CCOc2ccc(CC3SC(=O)NC3=O)cc2)nc1 (centres unmarked) [pioglitazone]
[11]
  risk of weight gain, edema, congestive heart failure, and osteoporotic fractures: significantly increased risk

## CCCCCCCCCCCCCCCCCCCC(=O)N[C@H]1CC[C@@]2(C)[C@@H](C1)C[C@@H](O)[C@@H]1[C@@H]2C[C@H](O)[C@]2(C)[C@@H]([C@H](C)CCC(=O)O)CC[C@@H]12 [Aramchol]
[12]
  features of steatohepatitis: Reduced
  fibrosis: Reduced
  protein expression of COL1A1 in the liver: decreased protein

## Belapectin
[13]; 60 mg/kg IV twice a week for 4 weeks
  expression of pathological indicators including iNOS, CD36, and a-smooth muscle actin: reduced the
[13]; 60 mg/kg IV twice a week for 4 weeks, early treatment cohort (from Week 6)
  fat deposition: Decreased fat
[13]; [21]
  hepatocellular ballooning: Decreased fat
  inflammatory infiltrate: Decreased fat
[13]; early treatment cohort (from Week 6), significant
  NAS score: improved NAS
[13]; late treatment cohort (from Week 9), did not reach significance
  NAS versus vehicle control: improvement

## O=C(O)c1cc(F)c2nc(N3[C@@H]4CC[C@H]3C[C@@H](OCc3c(-c5ccccc5OC(F)(F)F)noc3C3CC3)C4)sc2c1 [Tropifexor]
[14]
  fibrosis: reduced
  hepatic inflammation cell populations: reduced mRNA
  inflammation: reduced
  mRNA levels of fibrogenic markers: reduced mRNA
  steatosis: reduced

## semaglutide
[15]; [22]
  NAS overall score: decreased liver
  liver weight: decreased liver
[15]; ALT-801 5 or 10 nmol/kg
  liver TG level: decreased liver
  liver content of fibrosis markers: decreased liver
  liver total cholesterol level: decreased liver
  plasma ALT level: decreased liver
Patients with NASH; 0.1-mg group
  percentage of patients with NASH resolution and no worsening of fibrosis: 40%
Patients with NASH; 0.2-mg group
  percentage of patients with NASH resolution and no worsening of fibrosis: 36%
Patients with NASH; 0.4-mg group
  mean percent weight loss: 13%
  percentage of patients with NASH resolution and no worsening of fibrosis: 59%
Patients with NASH; daily subcutaneous
  percentage of patients with an improvement in fibrosis stage vs placebo: did not show a significant between-group difference
Patients with NASH; human, in vivo
  incidence of constipation: 22%
  incidence of nausea: 42%
  incidence of vomiting: 15%
  patients with malignant neoplasms: 1%
  patients with neoplasms (benign, malignant, or unspecified): 15%

## CCO[C@@H](Cc1ccc(OCCn2c(C)ccc2-c2ccc(SC)cc2)cc1)C(=O)O [Saroglitazar]
[16]; 3 mg/kg PO for 12 weeks
  ballooning: reduced or no
  hepatic steatosis: reversal of
  vacuolation: reduced or no
[16]; 3 mg/kg
  Liver lipid (TG) accumulation attenuated: 79%
  hepatic fibrogenic and inflammatory gene expression: also reduced
  liver TNFα levels: also reduced
  liver collagen content attenuated: 41%
  reduced serum level of ALT: (60%), AST
  reduced serum level of MCP1: MCP1 (45%).

## O=C(O)CCCc1cc2cc(Cl)ccc2n1S(=O)(=O)c1ccc2ncsc2c1 [Lanifibranor]
[17]
  inflammation on histopathology: prevented
  liver triglyceride levels: decreased
  plasma alanine aminotransferase levels: reduced plasma
  serum triglyceride levels: decreased
  steatosis on histopathology: prevented
